Assays:
[1] = test system: NF-κB; experiment: Test on the function of inhibiting the activation of NF-κB induced by ultraviolet rays (gel shift assay); assay type: cell-based, human; conditions: for Inhibition ratio (%) of NF-κB activation: human epidermal cells, UVB 50 mJ/cm^2
Description: Test on the Function of Inhibiting the Activation of NF-κB Induced by Ultraviolet Rays.
After 18 hours had elapsed, the culture medium was substituted by a phenol red-free medium. The cells were exposed to ultraviolet rays (UVB: 50 mJ/cm^2) from an ultraviolet irradiator “Dermaray M-DMR-80” (ex Toshiba Medical Supply Co., Ltd.). After 4 to 5 hours had elapsed, the cells were collected, and the nucleoprotein was extracted therefrom in a manner known per se in the art. From the resulting nucleoprotein, the activated NF-κB was detected in accordance with the gel shift assay. The amount of the NF-κB was determined by measuring the radioactive value of the NF-κB band with the use of a bioimaging analyzer “BAS 2000” (ex Fuji Film Co., Ltd.).
The inhibition ratio of the activation of the NF-κB of the test compounds was calculated from the below-described formula (1).
Inhibition ratio of NF-κB activation (%)={1−(A1-A3)/(A2-A3)}×100 (1)
A1: radioactive value of the NF-κB upon addition of a test compound
A2: radioactive value of NF-κB when a test compound is not added
A3: radioactive value of NF-κB when a test compound is not added and is not exposed to ultraviolet rays.

[2] = test system: AP-1; experiment: Test on the function of inhibiting the AP-1 activation induced by ultraviolet rays (gel shift assay); assay type: cell-based, human; conditions: single compound
Description: Test on the Function of Inhibiting the AP-1 Activation Induced by Ultraviolet Rays.
In a similar manner to Test Example 1, a nucleoprotein was obtained. Then, the activated AP-1 was detected by the gel shift assay. The radioactive value of the AP-1 band was measured as in Test Example 1, whereby the amount of the AP-1 was determined. The AP-1 activation inhibiting ratio of the test compounds was calculated by the below-described equation (2). The results of the test compounds according to the present invention are shown below in Table 4a, while those of the comparative compounds are shown below in Table 4b.
AP-1 activation inhibiting ratio (%)={1−(B1-B3)/(B2-B3)}×100 (2)
B1: radioactive value of the AP-1 band upon addition of a test compound.
B2: radioactive value of the AP-1 band when a test compound is not added.
B3: radioactive value of the AP-1 band when a test compound is not added and is not exposed to ultraviolet rays.

[3] = test system: Hairless mice (SKH-1); experiment: Test on inhibiting function of wrinkles formation induced by ultraviolet rays (No. 2), Components (A) and (B) in combination; assay type: in vivo, mouse; design: scale not given here; conditions: 5% alone
Description: Hairless mice (SKH-1, female, 5-6 weeks old) were exposed to ultraviolet rays (UVB) three times/week (Monday, Wednesday and Friday) for 5 weeks, each at 50 to 100 mJ/cm^2 by using the above-described “Dermaray M-DMR-80” (ex Toshiba Medical Supply Co., Ltd.). The test compound (N,N′-diacetyl-L-cystine dimethyl ester) was dissolved in a mixed solvent of propylene glycol, ethanol and water, and was applied to the back portion of each of the mice in an amount of 100 μl, 30 to 60 minutes before exposure to ultraviolet rays, just after the completion of the exposure, and on the days free from exposure to ultraviolet rays (Sunday, Tuesday, Thursday and Saturday). From two weeks after the exposure had started, the wrinkles formed on the back portion of each mouse were evaluated once a week based on the below-described standards, and they were indicated as scores. In addition, the function of the inventive compound for inhibiting wrinkle formation induced by ultraviolet rays was judged based on the below-described judging standards.
Test on Inhibiting Function of Wrinkles Formation Induced by Ultraviolet Rays (No. 2)
Function of suppressing ultraviolet ray-induced wrinkles formation by the synergistic effects when Components (A) and (B) were used in combination, was judged in a similar manner to Test Example 2. Fifteen to twenty mice were divided into 4 groups, that is, a 1st group to which a mixed solvent of propylene glycol, ethanol and water was to be applied, a 2nd group to which a solution of only Component (A) dissolved in the above-described solvent was to be applied, a 3rd group to which a solution of only Component (B) dissolved in the above-described solvent was to be applied, and a 4th group to which a solution of both Components (A) and (B) dissolved in the above-described solvent was to be applied. An average score of each group was determined.

COC(=O)[C@H](CCSSCC[C@H](NC(C)=O)C(=O)OC)NC(C)=O (racemic) [N,N′-diacetyl -DL-homocystine dimethyl ester]
Inhibition ratio (%) of NF-κB activation ([1]; addition concentration 0.01 mM): 10% | Inhibition ratio (%) of NF-κB activation ([1]; addition concentration 0.1 mM): 46%

Cc1c(C)c2c(c(C)c1O)CCC(C)(CCCC(C)CCCC(C)CCCC(C)C)O2 (racemic) [dl-α-tocopherol]
AP-1 activation Inhibiting ratio (%) ([2]; 10 μM): 5% | AP-1 activation Inhibiting ratio (%) ([2]; 100 μM): −1% | Wrinkle score (group average) ([3]; 2nd week): 2.0 | Wrinkle score (group average) ([3]; 3rd week): 3.0 | Wrinkle score (group average) ([3]; 4th week): 2.5 | Wrinkle score (group average) ([3]; 5th week): 3.5

COc1ccc(C(=O)CC(=O)c2ccc(C(C)(C)C)cc2)cc1 [4-tert-butyl-4′-methoxybenzoylmethane]
AP-1 activation Inhibiting ratio (%) ([2]; 1 μM): −14% | AP-1 activation Inhibiting ratio (%) ([2]; 10 μM): 17%

CCOC(=O)[C@@H](N)CSSC[C@H](N)C(=O)OCC [L-cystine diethyl ester]
Inhibition ratio (%) of NF-κB activation ([1]; addition concentration 0.1 mM): 50% | Inhibition ratio (%) of NF-κB activation ([1]; addition concentration 0.5 mM): >100%

CC(=O)N[C@@H](CSSC[C@H](NC(C)=O)C(=O)O)C(=O)O [N,N′ -diacetyl-L-cystine, N,N′-diacetyl-L-cystine, reference compound]
Inhibition ratio (%) of NF-κB activation ([1]; addition concentration 10 mM): 48% | Inhibition ratio (%) of NF-κB activation ([1]; addition concentration 30 mM): 67%

CCCC(=O)N[C@@H](CSSC[C@H](NC(=O)CCC)C(N)=O)C(N)=O [N,N′-di(n-butyryl)-L-cystine diamide]
Inhibition ratio (%) of NF-κB activation ([1]; addition concentration 0.01 mM): 45% | Inhibition ratio (%) of NF-κB activation ([1]; addition concentration 0.1 mM): 11%

CCCC(=O)N[C@@H](CSSC[C@H](NC(=O)CCC)C(=O)OC)C(=O)OC [N,N′-di(n-butyryl)-L-cystine dimethyl ester]
Inhibition ratio (%) of NF-κB activation ([1]; addition concentration 0.01 mM): 52% | Inhibition ratio (%) of NF-κB activation ([1]; addition concentration 0.1 mM): 79%

CCCCCCCCCC(=O)N[C@@H](CSSC[C@H](NC(=O)CCCCCCCCC)C(=O)OC)C(=O)OC [N,N′-di(n-decanoyl)-L-cystine dimethyl ester]
Inhibition ratio (%) of NF-κB activation ([1]; addition concentration 0.01 mM): 56% | Inhibition ratio (%) of NF-κB activation ([1]; addition concentration 0.1 mM): 68%

CCCCCCC(=O)N[C@@H](CSSC[C@H](NC(=O)CCCCCC)C(=O)OC)C(=O)OC [N,N′-di(n-heptanoyl)-L-cystine dimethyl ester]
Inhibition ratio (%) of NF-κB activation ([1]; addition concentration 0.01 mM): 25% | Inhibition ratio (%) of NF-κB activation ([1]; addition concentration 0.1 mM): 103%

CCCCCC(=O)N[C@@H](CSSC[C@H](NC(=O)CCCCC)C(=O)OC)C(=O)OC [N,N′-di(n-hexanoyl)-L-cystine dimethyl ester]
Inhibition ratio (%) of NF-κB activation ([1]; addition concentration 0.01 mM): 43% | Inhibition ratio (%) of NF-κB activation ([1]; addition concentration 0.1 mM): 77%

CCCCCCCC(=O)N[C@@H](CSSC[C@H](NC(=O)CCCCCCC)C(=O)OC)C(=O)OC [N,N′-di(n-octanoyl)-L-cystine dimethyl ester]
Inhibition ratio (%) of NF-κB activation ([1]; addition concentration 0.01 mM): 33% | Inhibition ratio (%) of NF-κB activation ([1]; addition concentration 0.1 mM): 91%

CCC(=O)N[C@@H](CSSC[C@H](NC(=O)CC)C(=O)OC)C(=O)OC [N,N′-di(n-propionyl)-L-cystine dimethyl ester]
Inhibition ratio (%) of NF-κB activation ([1]; addition concentration 0.01 mM): 17% | Inhibition ratio (%) of NF-κB activation ([1]; addition concentration 0.1 mM): 54%

CCCCC(=O)N[C@@H](CSSC[C@H](NC(=O)CCCC)C(N)=O)C(N)=O [N,N′-di(n-valeryl)-L-cystine diamide]
Inhibition ratio (%) of NF-κB activation ([1]; addition concentration 0.01 mM): 8% | Inhibition ratio (%) of NF-κB activation ([1]; addition concentration 0.1 mM): 53%

CCCCC(=O)N[C@@H](CSSC[C@H](NC(=O)CCCC)C(=O)OC)C(=O)OC [N,N′-di(n-valeryl)-L-cystine dimethyl ester]
Inhibition ratio (%) of NF-κB activation ([1]; addition concentration 0.01 mM): 18% | Inhibition ratio (%) of NF-κB activation ([1]; addition concentration 0.1 mM): 64%

CCOC(=O)[C@H](CSSC[C@H](NC(C)=O)C(=O)OCC)NC(C)=O [N,N′-diacetyl-L-cystine diethyl ester]
Inhibition ratio (%) of NF-κB activation ([1]; addition concentration 0.01 mM): 37% | Inhibition ratio (%) of NF-κB activation ([1]; addition concentration 0.1 mM): 107%

CC(=O)N[C@@H](CSSC[C@H](NC(C)=O)C(=O)OC(C)C)C(=O)OC(C)C [N,N′-diacetyl-L-cystine diisopropyl ester]
Inhibition ratio (%) of NF-κB activation ([1]; addition concentration 0.01 mM): 19% | Inhibition ratio (%) of NF-κB activation ([1]; addition concentration 0.1 mM): 48%

CCCCCCCCCCCC(=O)N[C@@H](CSSC[C@H](NC(=O)CCCCCCCCCCC)C(=O)OC)C(=O)OC [N,N′-dilauroyl-L-cystine dimethyl ester]
Inhibition ratio (%) of NF-κB activation ([1]; addition concentration 0.01 mM): 52% | Inhibition ratio (%) of NF-κB activation ([1]; addition concentration 0.1 mM): 59%

COC(=O)[C@H](CSC(C)=O)NC(C)=O [N,S-diacetyl-L-cystine methyl ester]
Inhibition ratio (%) of NF-κB activation ([1]; addition concentration 0.01 mM): 20% | Inhibition ratio (%) of NF-κB activation ([1]; addition concentration 0.1 mM): 31%

CCOC(=O)[C@H](CSSC[C@H](N)C(=O)O)NC(C)=O [N-acetyl-L-cystine ethyl ester]
Inhibition ratio (%) of NF-κB activation ([1]; addition concentration 0.01 mM): 31% | Inhibition ratio (%) of NF-κB activation ([1]; addition concentration 0.1 mM): 74%

CC(=O)N[C@@H](CSSC[C@H](N)C(=O)O)C(=O)OC(C)C [N-acetyl-L-cystine isopropylester]
Inhibition ratio (%) of NF-κB activation ([1]; addition concentration 0.01 mM): 21% | Inhibition ratio (%) of NF-κB activation ([1]; addition concentration 0.1 mM): 82%

COC(=O)[C@H](CSSC[C@H](N)C(=O)O)NC(C)=O [N-acetyl-L-cystine methyl ester]
Inhibition ratio (%) of NF-κB activation ([1]; addition concentration 0.01 mM): 28% | Inhibition ratio (%) of NF-κB activation ([1]; addition concentration 0.1 mM): 95%

CCCCCCCCCCCC(=O)N[C@@H](CSSC[C@H](N)C(=O)O)C(=O)OC [N-lauroyl-L-cystine methyl ester]
Inhibition ratio (%) of NF-κB activation ([1]; addition concentration 0.01 mM): 36% | Inhibition ratio (%) of NF-κB activation ([1]; addition concentration 0.1 mM): 43%

CCCCCCCCCCCC(=O)N[C@@H](CSSC[C@H](N)C(=O)O)C(=O)O [N-lauroyl-L-cystine]
Inhibition ratio (%) of NF-κB activation ([1]; addition concentration 0.1 mM): 14% | Inhibition ratio (%) of NF-κB activation ([1]; addition concentration 0.5 mM): 86%

O=C(O)c1ccccc1O [Salicylic acid]
Wrinkle score (group average) ([3]; 2nd week): 2.0 | Wrinkle score (group average) ([3]; 3rd week): 1.5 | Wrinkle score (group average) ([3]; 4th week): 1.5 | Wrinkle score (group average) ([3]; 5th week): 2.5

CC1(C)[C@@H](O)CC[C@]2(C)[C@H]3C(=O)C=C4[C@@H]5C[C@@](C)(C(=O)O)CC[C@]5(C)CC[C@@]4(C)[C@]3(C)CC[C@@H]12 [glycyrrhetinic acid]
AP-1 activation Inhibiting ratio (%) ([2]; 10 μM): 2% | AP-1 activation Inhibiting ratio (%) ([2]; 100 μM): −104%

CC1(C)[C@@H](O[C@H]2O[C@H](C(=O)O)[C@@H](O)[C@H](O)[C@H]2O[C@@H]2O[C@H](C(=O)O)[C@@H](O)[C@H](O)[C@H]2O)CC[C@]2(C)[C@H]3C(=O)C=C4[C@@H]5C[C@@](C)(C(=O)O)CC[C@]5(C)CC[C@@]4(C)[C@]3(C)CC[C@@H]12 [glycyrrhizic acid]
AP-1 activation Inhibiting ratio (%) ([2]; 0.1 mM): 3% | AP-1 activation Inhibiting ratio (%) ([2]; 1 mM): −70%

S=C(S)N1CCCC1 [pyrrolidine dithiocarbamate, reference compound]
Inhibition ratio (%) of NF-κB activation ([1]; addition concentration 0.005 mM): −2% | Inhibition ratio (%) of NF-κB activation ([1]; addition concentration 0.01 mM): 9% | NF-κB activation inhibiting function (in words) ([1]; summary of Tables 2a and 2b): did not exhibit the NF-κKB activation inhibiting function

From patent publication US20020115723A1, “Cysteine derivatives” (AJINOMOTO CO., INC., priority 1998, published 2002)
